The values below are quoted from earlier work in PMC4468036 (Bioorganic & medicinal chemistry, 2014).

In one data set the target is μ receptor. The note with it: read-out: IC50 at μ receptor; selectivity of ML140.
A further data set has as its target δ receptor. The note with it: read-out: IC50 at δ receptor; selectivity of ML140.

`Cc1ccc(S(=O)(=O)NCc2ccc(C(=O)NCCN(Cc3ccccc3)C(C)C)cc2)cc1` [ML140]: the IC50 at μ receptor is more than 24 µM; at δ receptor it was more than 32 µM.
